Here are results for eight compounds from patent US8106155B2, “Test kit for determining process for determining antibiotics containing a beta-lactam ring in a biological fluid” (Neogen Corporation, priority 1998, dated 2012).

The structures appear in SMILES notation.

In assay [1] the target is T1, BlaR-CTD receptor (Bacillus licheniformis, UniProt P12287).
T1 construct: uses the BlaR-CTD receptor coupled to gold beads
The assay is described as follows: 9-minute test: BlaR-CTD coupled to gold beads, membrane test device, milk. The format is binding. As to conditions: test carried out in 9 minutes, 47° C.; positive when 1st band less intense than 2nd band. How it is done: (§1) This example illustrates the detection in milk of antibiotics containing a β-lactam ring, which are controlled by the health authorities. The test described in this example uses the BlaR-CTD receptor coupled to gold beads which serve as labelling agents, and uses a support in the form of a test device comprising a solid support to which membranes are attached.
6 samples of fresh milk containing 0; 4; 6; 8; 10 and 12 ppb of cephapirin, respectively, are prepared. Each of these solutions is then analyzed in the following way.
A 200 μl aliquot sample of milk and 45.27 μl of solution prepared in Example 1.1.3 are taken and placed in a glass flask. This mixture is incubated for 7 minutes at 47° C. A test device is taken and placed vertically in the glass flask such that the first end of the test device is in contact with the mixture and such that the second end rests on the wall of the glass flask. The mixture is left to migrate on the test device, while incubating the assembly for 2 minutes at 47° C.
An intensity value ranging from 0 to 10 is attributed to the bands detected, the value 10 being given to the most intense band and the value 0 being given to the least intense band. According to this scale, a value of 6 is assigned to the reference band. The intensity of the signal observed in the first band is inversely proportional to the amount of cephapirin present in the sample.
(§2) In this example, when the first band has an intesity less than that of the second band, the test is considered as being positive.

In assay [2] the target is T1, BlaR-CTD receptor. The assay is described as follows: 5-minute test: BlaR-CTD coupled to gold beads, membrane test device, milk. The format is binding. As to conditions: 47° C.; for concentration detected in a sample of milk: test carried out in 5 minutes, positive when 1st band less intense than 2nd band; for Intensity 1st band: 5-minute test, scale 0 to 10, reference band 6. Here is the method:
as §1
6 samples of fresh milk containing 0; 2; 4; 6; 8 and 10 ppb of cloxacillin, respectively, are prepared. Each of these solutions is then analyzed in the following way.
A 200 μl aliquot sample of milk and 45.27 μl of solution prepared in Example 1.1.3 are taken and placed in a glass flask. This mixture is incubated for 3 minutes at 47° C. A test device is taken and placed vertically in the glass flask such that the first end of the test device is in contact with the mixture and such that the second end rests on the wall of the glass flask. The mixture is left to migrate on the test device, while incubating the assembly for 2 minutes at 47° C.
An intensity value ranging from 0 to 10 is attributed to the bands detected, the value 10 being given to the most intense band and the value 0 being given to the least intense band. According to this scale, a value of 6 is assigned to the reference band. The intensity of the signal observed in the first band is inversely proportional to the amount of cloxacillin present in the sample.
as §2

The target in assay [3] is T1, BlaR-CTD receptor. The assay is described as follows: 3-minute rapid test: BlaR-CTD coupled to gold beads, membrane test device, milk. The settings on record: test carried out in 3 minutes, 47° C.; positive when 1st band less intense than 2nd band. The format is binding. How it is done: as §1
7 samples of fresh milk containing 0; 1; 2; 3; 4; 5 and 6 ppb of penicillin G, respectively, are prepared. Each of these solutions is then analyzed in the following way:
A 200 μl aliquot sample of milk and 45.27 μl of solution prepared in Example 1.1.3 are taken and placed in a glass flask. This mixture is incubated for 1 minute at 47° C. A test device is taken and placed vertically in the glass flask such that the first end of the test device is in contact with the mixture and such that the second end rests on the wall of the glass flask. The mixture is left to migrate on the test device, while incubating the assembly for 2 minutes at 47° C.
An intensity value ranging from 0 to 10 is attributed to the bands detected, the value 10 being given to the most intense band and the value 0 being given to the least intense band. According to this scale, a value of 6 is assigned to the reference band. The intensity of the signal observed in the first band is inversely proportional to the amount of penicillin G present in the sample.
as §2

For assay [4], the system named is protein isolated from an antibiotic-sensitive microorganism, such as Bacillus stearothermophilus. The settings on record: Example 1 of European Patent Application 593 112; cited from earlier work.
The target of assay [5] is T2, BlaR-CTD receptor in the form of two fusion proteins with alkaline phosphatase and peroxidase (Bacillus licheniformis, UniProt P12287).
T2 construct: uses the BlaR-CTD receptor in the form of two fusion proteins with alkaline phosphatase and peroxidase, respectively; alkaline phosphatase, chemically coupled (Boehringer-Mannheim 1464752); peroxidase, chemically coupled (Boehringer-Mannheim 1428861)
T2 sequence (P12287 354-601): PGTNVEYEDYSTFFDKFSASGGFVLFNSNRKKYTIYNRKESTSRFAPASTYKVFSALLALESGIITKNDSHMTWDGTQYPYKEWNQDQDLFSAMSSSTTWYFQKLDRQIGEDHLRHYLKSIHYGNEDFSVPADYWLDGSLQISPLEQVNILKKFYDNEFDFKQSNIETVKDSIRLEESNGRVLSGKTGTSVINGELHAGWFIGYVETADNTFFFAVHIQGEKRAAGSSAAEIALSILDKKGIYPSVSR
The assay is described as follows: Example 3: BlaR-CTD fusion proteins with alkaline phosphatase and peroxidase, cephalosporin C microplate, milk. It counts as binding. The settings on record: absorbance at 405 nm, 47° C., at the control thresholds required by the US authorities. The source says:
This example illustrates the detection in milk of 3 antibiotics containing a β-lactam ring which are controlled by the health authorities. The test described in this example uses the BlaR-CTD receptor in the form of two fusion proteins with alkaline phosphatase and peroxidase, respectively, and uses a support in the form of a microplate.
Polystyrene microplates with high protein adsorption, of the brand name NUNK (Immuno Plate: Maxisorp type) or of the brand name GREINER (microlon 600, reference 705071), are used. The microplate cuvettes are washed with 150 mM, pH 7.2 PBS buffer. Next, an aliquot of the solution prepared in Example 3.3.1. is incubated for 24 hours at 4° C. in the cuvettes. After incubation, the cuvettes are washed three times with 150 mM, pH 7.2 PBS buffer, 0.1% Tween-20. The tube is then saturated for two hours at 20° C. with 150 mM, pH 7.2 PBS saturation buffer, 5% BSA. After washing three times with washing buffer, the tubes are dried and stored at 4° C. away from moisture.
For the cuvettes intended for the BlaR-CTD-alkaline phosphatase recognition agent, the washing buffer used is 1 M, pH 9.8 diethanolamine, 0.5 mM MgCl2: for the cuvettes intended for the BlaR-CTD-peroxidase recognition agent, the washing buffer used is 50 mM, pH 5 potassium phosphate.
1.4 picomol of labelled recognition agent are incubated in the presence of 100 μl of doped milk for 5 minutes at 47° C. The milk is transferred using a pipette into a cuvette which has been pretreated as indicated in Example 2.3. The milk is then incubated for 2 minutes at 47° C. […] The plate is then placed in an automatic spectrophotometer for ELISA plates, the wavelength being set at 405 nm.

T1 sequence (P12287 354-601): as above

In the case of `CC1(C)S[C@@H]2[C@H](NC(=O)[C@H](N)c3ccc(O)cc3)C(=O)N2[C@H]1C(=O)O` [amoxicillin], the “concentration detected in a sample of milk” value at BlaR-CTD receptor [1] was 4 ppb; on BlaR-CTD receptor [2] it was 4 ppb; on BlaR-CTD receptor [3], 5 ppb. In addition, the concentration detected in assay [4] is 5 ppb.

On to `CC1(C)S[C@@H]2[C@H](NC(=O)[C@H](N)c3ccccc3)C(=O)N2[C@H]1C(=O)O` [ampicillin], for which the “concentration detected in a sample of milk” value amounted to 4 ppb at BlaR-CTD receptor [1], 4 ppb at BlaR-CTD receptor [2] and 5 ppb on BlaR-CTD receptor [3]. Moreover, the concentration detected in assay [4] is recorded as 10 ppb.

As for `Cc1nnc(SCC2=C(C(=O)O)N3C(=O)[C@@H](NC(=O)Cn4cnnn4)[C@H]3SC2)s1` [cefazoline], the results for the “concentration detected in a sample of milk” value at BlaR-CTD receptor [1] and at BlaR-CTD receptor [2] were 45 ppb and 60 ppb, respectively.

Regarding `CO/N=C(\C(=O)N[C@@H]1C(=O)N2C(C(=O)[O-])=C(C[n+]3cccc4c3CCCC4)CS[C@H]12)c1csc(N)n1` [cefquinone], the “concentration detected in a sample of milk” value on BlaR-CTD receptor [2] is “less than 20 ppb”.

In the case of `Cc1onc(-c2ccccc2Cl)c1C(=O)N[C@@H]1C(=O)N2[C@@H]1SC(C)(C)[C@@H]2C(=O)O` [cloxacillin], the “concentration detected in a sample of milk” value was 4 ppb at BlaR-CTD receptor [1], “less than 4 ppb” at BlaR-CTD receptor [2] and “less than 10 ppb” at BlaR-CTD receptor [3]. Further, the “Intensity 1st band” value is 6 on BlaR-CTD receptor [2] (2 ppb cloxacillin in milk); 5 at BlaR-CTD receptor [2] (4 ppb cloxacillin in milk); 3 at BlaR-CTD receptor [2] (6 ppb cloxacillin in milk); 3 on BlaR-CTD receptor [2] (8 ppb cloxacillin in milk); 3 on BlaR-CTD receptor [2] (10 ppb cloxacillin in milk). Moreover, in assay [5], the “concentration detected in milk” value was 10 ppb.

Turning to `Cc1onc(-c2c(Cl)cccc2Cl)c1C(=O)N[C@@H]1C(=O)N2[C@@H]1SC(C)(C)[C@@H]2C(=O)O` [dicloxacillin], at BlaR-CTD receptor [2], the “concentration detected in a sample of milk” value is 8 ppb.

As to `CCOc1ccc2ccccc2c1C(=O)N[C@@H]1C(=O)N2[C@@H]1SC(C)(C)[C@@H]2C(=O)O` [nafcillin], the “concentration detected in a sample of milk” value at BlaR-CTD receptor [2] was 20 ppb.

Turning to `Cc1onc(-c2ccccc2)c1C(=O)N[C@@H]1C(=O)N2[C@@H]1SC(C)(C)[C@@H]2C(=O)O` [oxacillin], the “concentration detected in a sample of milk” value at BlaR-CTD receptor [2] is 8 ppb.
